Patent US10767179B2, “MicroRNA composition for the treatment of neuroblastoma” (THE BOARD OF REGENTS OF THE UNIVERSITY OF TEXAS SYSTEM, priority 2014, dated 2020)

Legend:
Format in all cases: cell-based
[1] = system: BE(2)-C cells; assay: Cell Viability Assay (CellTiter-Glo)
Description: Cell Viability Assay. Cells were plated in 96-well format and treated as specified. After culturing for 120 h, cell viability was determined using the CellTiter-Glo Luminescent Cell Viability Assay (Promega).

[2] = system: BE(2)-C cells; assay: High-content screen: detection and quantification of neurite outgrowth; parameters: key: neurite length normalized to the mean of its plate; details: 25 nM miRNA mimic, 4 days transfection, normalized to plate mean
Description: FIG. 2A-2C. HCS screening of miRNA mimics identifies miRNAs that induce neurite outgrowth in BE(2)-C cells. (A-B) 2,500 cells were reverse-transfected with 25 nM miRNA mimics in 96-well plates. After 4 days transfection, relative neurite lengths were quantified as above. (A) The distribution of post-normalized neurite length measurements (grey histogram) for individual miRNA mimics from the screen and the fitted Gamma distribution curve (␣=3.27, ┘=0.444) (B) Correlation between two independent neurite length measurements for one library plate. Cells were transfected with 25 nM mimics in two independent 96-well plates. Normalized neurite lengths were measured as above. Correlation of neurite length between the two plates was analyzed using two-tailed Pearson Correlation with p<0.05 considered significant. (C) The distribution of the neurite lengths for untreated BE(2)-C cells. 2,500 Cells were plated into each well in 96 well plates. After 4 days of culture, neurite lengths were analyzed as above. Shown are the neurite length distribution histogram, the empirical density curve, and the fitted Gamma distribution curve (␣=30.23, ␣=0.033).
Detection and Quantification of Neurite Outgrowth. Cells were plated and treated in 96-well plates. For detecting neurite outgrowth, cells were placed into ZOOM IncuCyte Imaging System (Essen BioScience) and cell images were taken under 20× microscopic magnification. For detecting neurite outgrowth in a time-dependent manner, cell images were taken every 6 h. The neurite lengths associated with each treatment were calculated using the neurite definition defined for each specific cell line using the NeuroTrack system (Essen BioScience).
Analysis of HCS Data. The relative neurite length associated with cells in each well on the screen plates was determined as above. In order to allow for plate-to-plate comparison, neurite length associated with each well in each plate was first internally normalized to the mean of the corresponding plate, and multiple screen plates were then aggregated together to generate the neurite length distribution. The data were then further analyzed to determine the distribution of the unaffected cells as described below, and to identify differentiation-inducing miRNA mimics.
Statistical Analysis. For HCS, p-value for neurite length associated with each miRNA mimic was evaluated by assuming the distribution of neurite lengths follows Gamma distribution, and false Discovery Rate (FDR) was determined by Benjamini-Hochberg correction method for multiple tests (Benjamin, Journal of the Royal Statistical Society Series B (Methodological), 1995, 57(1):12). […] For all other conditions, the statistical significance for each treatment was determined using t-test by comparing the treatment group with control, with p<0.05 considered statistically significant.

[3] = system: cleaved CASPASE 3 and PARP; assay: Western blots of apoptosis markers in BE(2)-C cells; details: ATRA 5 days, dose-dependent
Description: (§1) Western Blots. Cell lysates were prepared using RIPA buffer. Protein concentration was determined using the Pierce BCA assay (Thermo Fisher Scientific). For electrophoresis, equal amounts of cell lysate were resolved by SDS-PAGE and transferred to Immun-Blot PVDF membranes (Bio-Rad Laboratories). Membranes were blocked and probed with primary antibodies to specific proteins. Bound antibodies were detected with secondary antibodies conjugated with horseradish peroxidase (HRP) visualized by enhanced chemiluminescent (ECL) substrate (Pierce).

[4] = system: PCNA and Ki67; assay: Western blots of cell proliferation markers in BE(2)-C cells; details: ATRA 5 days, dose-dependent
Description: as §1

[5] = system: BE(2)-C cells; assay: High-content screen: detection and quantification of neurite outgrowth; details: ATRA vs carrier (DMSO), 5 days
[6] = system: GAP43, NSE and β-TUBULIN III; assay: Western blots of differentiation markers in BE(2)-C cells; details: ATRA 5 days, dose-dependent
Description: as §1

Molecule | Neurite length (mean ± SD) [2] | other results
CC1=C(/C=C/C(C)=C/C=C/C(C)=C\C(=O)O)C(C)(C)CCC1 [cis-RA, 13-cis retinoic acid] | – | Cell viability when reaching plateau ([1]; treated for 5 days): 42.6±3.7%
hsa-miR-34a-5p: miRNA mimic, mature sequence UGGCAGUGUCUUAGCUGGUUGU (SEQ ID NO: 7) (UGGCAGUGUCUUAGCUGGUUGU(2); as printed in the source, key not given here) | 9.49 ± 3.18 | –
hsa-miR-103a-3p: miRNA mimic, mature sequence AGCAGCAUUGUACAGGGCUAUGA (SEQ ID NO: 8) (AGCAGCAUUGUACAGGGCUAUGA(3); as printed in the source, key not given here) | 9.43 ± 2.67 | –
hsa-miR-137: miRNA mimic, mature sequence UUAUUGCUUAAGAAUACGCGUAG (SEQ ID NO: 16) (listed as RNA, chemistry not given here) | 7.03 ± 1.36 | –
CC1=C(/C=C/C(C)=C/C=C/C(C)=C/C(=O)O)C(C)(C)CCC1 [ATRA, all-trans retinoic acid] | – | Expression of apoptosis markers (cleaved CASPASE 3, PARP) [3]: increases expression of apoptosis markers; Expression of cell proliferation markers (PCNA, Ki67) [4]: inhibits expression of cell proliferation markers; Cell viability ([1]; 5 days, dose-dependent): decreases cell viability; Relative neurite length compared to control [5]: significantly increases the relative neurite length; Expression of neuroblastoma differentiation markers (GAP43, NSE, β-TUBULIN III) [6]: stimulates expression of neuroblastoma differentiation markers
hsa-miR-449a: miRNA mimic, mature sequence UGGCAGUGUAUUGUUAGCUGGU (SEQ ID NO: 10) (UGGCAGUGUAUUGUUAGCUGGU(2); as printed in the source, key not given here) | 9.16 ± 2.47 | –
hsa-miR-107: miRNA mimic, mature sequence AGCAGCAUUGUACAGGGCUAUCA (SEQ ID NO: 13) (AGCAGCAUUGUACAGGGCUAUCA(3); as printed in the source, key not given here) | 7.60 ± 1.98 | –
hsa-miR-135b-5p: miRNA mimic, mature sequence UAUGGCUUUUCAUUCCUAUGUGA (SEQ ID NO: 6) (listed as RNA, chemistry not given here) | 14.02 ± 4.29 | –
hsa-miR-34b-Sp: miRNA mimic, mature sequence UAGGCAGUGUCAUUAGCUGAUUG (SEQ ID NO: 12) (listed as RNA, chemistry not given here) | 8.41 ± 2.16 | –
hsa-miR-450b-3p: miRNA mimic, mature sequence UUGGGAUCAUUUUGCAUCCAUA (SEQ ID NO: 9) (listed as RNA, chemistry not given here) | 9.26 ± 2.64 | –
hsa-miR-3937: miRNA mimic, mature sequence ACAGGCGGCUGUAGCAAUGGGGG (SEQ ID NO: 17) (listed as RNA, chemistry not given here) | 6.93 ± 1.05 | –
hsa-miR-449b-5p: miRNA mimic, mature sequence AGGCAGUGUAUUGUUAGCUGGC (SEQ ID NO: 15) (AGGCAGUGUAUUGUUAGCUGGC(2); as printed in the source, key not given here) | 7.40 ± 1.85 | –
hsa-miR-3714: miRNA mimic, mature sequence GAAGGCAGCAGUGCUCCCCUGU (SEQ ID NO: 14) (listed as RNA, chemistry not given here) | 7.56 ± 1.91 | –
